In patent US10221163B2 (priority 2015, dated 2019):
Counter-ions that a name gives are not always drawn. Like-named read-outs stand apart in the source and are kept apart here.

Key:
[1] = system: Pseudomonas aeruginosa MB9798 vs MB9799
Procedure, shortened: (§1)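 P. aeruginosa PAO1-derived IMP-1 strains, efflux+ MB9798 and efflux− MB9799, tested by standard microbroth MIC with imipenem and/or ceftazidime fixed, usually at CLSI breakpoint, plus fixed class A/C β-lactamase inhibitor against AmpC. Inhibitor titrated; concentration restoring susceptibility recorded; MB9798/MB9799 fold difference indicates efflux.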

IMP-1 = IMP-1 (Serratia marcescens, UniProt P52699); test: biochemical; type: biochemical; settings: fluorescence assay, CCF2-FA substrate, 2 pM enzyme, 2 hours at 25° C., read-out: IMP-1 IC50
IMP-1, sequence (P52699 whole entry, looked up, species assumed): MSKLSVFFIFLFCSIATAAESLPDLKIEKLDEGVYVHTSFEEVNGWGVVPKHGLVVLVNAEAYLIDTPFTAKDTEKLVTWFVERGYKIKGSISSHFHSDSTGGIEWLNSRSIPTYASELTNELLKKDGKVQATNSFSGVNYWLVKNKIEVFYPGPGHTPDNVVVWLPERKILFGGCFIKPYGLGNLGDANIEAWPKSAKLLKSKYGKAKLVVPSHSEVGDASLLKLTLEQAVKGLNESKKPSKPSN
Procedure, shortened: (§2)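 IC50 values derive from 4-parameter fits of percent inhibition against inhibitor concentration on semi-log axes. Activity was monitored by fluorescence with the CCF2-FA substrate after a 2-hour, 25° C incubation of compound, enzyme and substrate.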

NDM-1 = NDM-1 (Klebsiella pneumoniae, UniProt C7C422); test: biochemical; type: biochemical; settings: fluorescence assay, CCF2-FA substrate, 1 pM enzyme, 2 hours at 25° C., read-out: NDM-1 IC50
NDM-1, sequence (C7C422 whole entry, looked up, species assumed): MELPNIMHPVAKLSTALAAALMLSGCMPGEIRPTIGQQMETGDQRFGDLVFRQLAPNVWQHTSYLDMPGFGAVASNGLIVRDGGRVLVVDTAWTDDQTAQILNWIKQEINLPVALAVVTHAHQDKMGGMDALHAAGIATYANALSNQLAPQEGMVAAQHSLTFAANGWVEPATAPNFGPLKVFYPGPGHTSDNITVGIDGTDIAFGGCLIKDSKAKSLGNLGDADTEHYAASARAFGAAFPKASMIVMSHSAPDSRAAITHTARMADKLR
Procedure, shortened: as §2

VIM-1 = VIM-1 (Pseudomonas aeruginosa (strain ATCC 15692 / DSM 22644 / CIP 104116 / JCM 14847 / LMG 12228 / 1C / PRS 101 / PAO1), UniProt A0A0F7KYQ8); test: biochemical; settings: CCF2-FA substrate, 30 pM enzyme, 2 hours at 25° C.
Procedure, shortened: as §2

[2] = system: Pseudomonas aeruginosa efflux+ (MB9798), IMP-1; type: cell-based; design: Concentration of metallo-β-lactamase inhibitor which restores susceptibility of efflux + (MB9798) strain to imipenem: unit not given here; settings: C, D serine β-lactamase inhibitor closely related to relebactam; for Concentration of metallo-β-lactamase inhibitor which restores susceptibility of efflux + (MB9798) strain to imipenem: imipenem at 2 μg/mL, in the presence of a class A; for P. aeruginosa expressing IMP-1, efflux + (MB9798) MITC95: concentration restoring susceptibility to imipenem at 2 μg/mL in the presence of a class A
Procedure, shortened: as §1

[3] = system: Pseudomonas aeruginosa efflux− (MB9799), IMP-1; type: cell-based; settings: C, D serine β-lactamase inhibitor closely related to relebactam; for Concentration of metallo-β-lactamase inhibitor which restores susceptibility of efflux − (MB9799) strain to imipenem: imipenem at 2 μg/mL, in the presence of a class A; for P. aeruginosa expressing IMP-1, efflux − (MB9799) MITC95: concentration restoring susceptibility to imipenem at 2 μg/mL in the presence of a class A
Procedure, shortened: as §1

[4] = system: Klebsiella pneumoniae expressing VIM-1 (IHMA599644); type: cell-based; settings: for Klebsiella pneumoniae MITC95: VIM-1 strain IHMA599644, with imipenem 1 μg/ml, 95% inhibition of growth; for Klebsiella pneumoniae expressing VIM-1 (IHMA599644) MITC95: with imipenem 1 μg/ml, 95% inhibition of bacterial growth
Procedure, shortened: (§3)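 Clinical strains grown overnight on blood agar at 35°C, colonies suspended in saline, diluted 1:100 into 1.1×CAMHB. Test compound titrated with imipenem at 1 μg/ml; incubated 22–24 h at 35°C, growth read by absorbance.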

[5] = system: Serratia marcescens expressing IMP-1 (CL5741); type: cell-based; settings: for Serratia marcescens MITC95: IMP-1 strain CL5741, with imipenem 1 μg/ml, 95% inhibition of growth; for Serratia marcescens expressing IMP-1 (CL5741) MITC95: with imipenem 1 μg/ml, 95% inhibition of bacterial growth
Procedure, shortened: as §3

[6] = system: Escherichia coli expressing NDM-1 (CLB30005, CLB30016); type: cell-based; settings: with imipenem 1 μg/ml; for Escherichia coli MITC95: NDM-1 strain, 95% inhibition of growth; for Escherichia coli expressing NDM-1 (CLB30016) MITC95: 95% inhibition of bacterial growth
Procedure, shortened: as §3

[7] = ratio MITC95 PA_9798/MITC95 PA_9799
[8] = fluorescence assay, read-out: VIM-1 IC50
[9] = fold difference between efflux+ (MB9798) and efflux− (MB9799) strains, imipenem at 2 μg/mL

Row | SMILES | Klebsiella pneumoniae MITC95 [4] [µM] | Serratia marcescens MITC95 [5] [µM] | Efflux ratio [1, 7] | IC50 (IMP-1) [nM] | IC50 (NDM-1) [nM] | IC50 (VIM-1; [8]) [nM] | P. aeruginosa expressing IMP-1, efflux + (MB9798) MITC95 [2] [µM] | P. aeruginosa expressing IMP-1, efflux − (MB9799) MITC95 [3] [µM] | Klebsiella pneumoniae expressing VIM-1 (IHMA599644) MITC95 [4] [µM] | Serratia marcescens expressing IMP-1 (CL5741) MITC95 [5] [µM] | Escherichia coli expressing NDM-1 (CLB30016) MITC95 [6] [µM] | other results
1 | NC[C@@]1(NS(=O)(=O)c2ccc(-c3ccc(N)nc3)c(-c3nn[nH]n3)c2S(N)(=O)=O)CCNC1 [Example 487, (S)-N1-(3-(aminomethyl)pyrrolidin-3-yl)-4-(6-aminopyridin-3-yl)-3-(2H-tetrazol-5-yl)benzene-1,2-disulfonamide dihydrochloride] | 1.563 | 0.7813 | – | – | – | – | – | – | – | – | – | Efflux ratio ([1]; fold difference between efflux+ (MB9798) and efflux− (MB9799) strains, imipenem at 2 μg/mL, dihydrochloride): 1.00; IC50 (IMP-1; dihydrochloride): 0.803 nM; IC50 (NDM-1; dihydrochloride): 0.274 nM; IC50 (VIM-1; VIM-1 IC50, fluorescence assay): 0.527 nM; Concentration of metallo-β-lactamase inhibitor which restores susceptibility of efflux + (MB9798) strain to imipenem [2]: 1.563; Concentration of metallo-β-lactamase inhibitor which restores susceptibility of efflux − (MB9799) strain to imipenem ([3]; dihydrochloride): 1.563; Escherichia coli MITC95 ([6]; dihydrochloride): 0.3906 µM
2 | Nc1nc(-c2cccc(-c3ccc(S(=O)(=O)N[C@@H]4CCNC4)c(S(N)(=O)=O)c3-c3nn[nH]n3)c2)n[nH]1 [Example 231, (R)-3′-(5-amino-1H-1,2,4-triazol-3-yl)-N4-(pyrrolidin-3-yl)-2-(2H-tetrazol-5-yl)-[1,1′-biphenyl]-3,4-disulfonamide] | – | – | 1.00 | 0.376 | 0.0288 | 0.115 | 1.563 | 1.563 | 3.125 | 1.563 | 1.563 | –
3 | NCCOCCNS(=O)(=O)c1ccc(-c2cccc3sc(N)nc23)c(-c2nnn[nH]2)c1S(N)(=O)=O [Example 203, 4-(2-aminobenzo[d]thiazol-4-yl)-N^1-(2-(2-aminoethoxy)ethyl)-3-(1H-tetrazol-5-yl)benzene-1,2-disulfonamide] | – | – | 0.50 | 0.199 | 0.05 | 0.185 | 0.7813 | 1.563 | 3.125 | 1.563 | 3.125 | –
4 | Nc1nc2c(-c3ccc(S(=O)(=O)N[C@H]4CN[C@H](CO)C4)c(S(N)(=O)=O)c3-c3nnn[nH]3)cccc2s1 [Example 78, 4-(2-amino-1,3-benzothiazol-4-yl)-N1-[(3R,5S)-5-(hydroxymethyl)pyrrolidin-3-yl]-3-(1H-tetrazol-5-yl)benzene-1,2-disulfonamide] | – | – | 0.50 | 0.234 | 0.0225 | – | 0.7813 | 1.563 | 3.125 | 1.563 | 3.125 | IC50 (VIM-1; VIM-1 IC50, fluorescence assay): 0.183 nM
5 | CNCCNS(=O)(=O)c1ccc(-c2cccc3sc(N)nc23)c(-c2nnn[nH]2)c1S(N)(=O)=O [Example 31, 4-(2-amino-1,3-benzothiazol-4-yl)-N^1-[2-(methylamino)ethyl]-3-(1H-tetrazol-5-yl)benzene-1,2-disulfonamide] | – | – | 1.50 | 2.02 | 2.59 | 8.18 | 2.344 | 1.563 | 6.25 | 2.344 | 9.375 | –
6 | Nc1nc2c(-c3ccc(S(=O)(=O)NC4CCS(=O)(=O)CC4)c(S(N)(=O)=O)c3-c3nnn[nH]3)cccc2s1 [Example 14, 4-(2-amino-1,3-benzothiazol-4-yl)-N1-(1,1-dioxidotetrahydro-2H-thiopyran-4-yl)-3-(1H-tetrazol-5-yl)benzene-1,2-disulfonamide] | – | – | 1.00 | 0.173 | 0.0255 | 0.176 | 3.125 | 3.125 | 12.5 | 3.125 | 12.5 | –
7 | NC(=O)c1csc(Nc2cccc(-c3ccc(S(=O)(=O)N[C@@H]4CCNC4)c(S(N)(=O)=O)c3-c3nn[nH]n3)c2)n1 [Example 471, (R)-2-((4′-(N-(pyrrolidin-3-yl)sulfamoyl)-3′-sulfamoyl-2′-(2H-tetrazol-5-yl)-[1,1′-biphenyl]-3-yl)amino)thiazole-4-carboxamide] | 3.125 | 1.563 | – | 0.111 | 0.0303 | 0.0734 | – | – | – | – | – | Efflux ratio [1, 9]: 4.00; Concentration of metallo-β-lactamase inhibitor which restores susceptibility of efflux + (MB9798) strain to imipenem [2]: 3.125; Concentration of metallo-β-lactamase inhibitor which restores susceptibility of efflux − (MB9799) strain to imipenem [3]: 0.7813; Escherichia coli MITC95 [6]: 1.563 µM
8 | NS(=O)(=O)c1c(S(=O)(=O)N[C@@H]2CCNC2)ccc(-c2ccc3c(c2)C(=O)NC3)c1-c1nnn[nH]1 [Example 138, (R)-4-(3-oxoisoindolin-5-yl)-N1-(pyrrolidin-3-yl)-3-(1H-tetrazol-5-yl)benzene-1,2-disulfonamide] | – | – | 1.00 | 0.275 | 0.124 | 0.15 | 1.563 | 1.563 | 3.125 | 3.125 | 3.125 | –
9 | C[C@H](CN)NS(=O)(=O)c1ccc(-c2cccnc2NCCN)c(-c2nn[nH]n2)c1S(N)(=O)=O [Example 460, (R)-4-(2-((2-aminoethyl)amino)pyridin-3 yl)-N1-(1-aminopropan-2-yl)-3-(2H-tetrazol-5-yl)benzene-1,2-disulfonamide] | 1.563 | 1.563 | – | 4.63 | 0.603 | 0.148 | – | – | – | – | – | Efflux ratio [1, 9]: 2.00; Concentration of metallo-β-lactamase inhibitor which restores susceptibility of efflux + (MB9798) strain to imipenem [2]: 3.125; Concentration of metallo-β-lactamase inhibitor which restores susceptibility of efflux − (MB9799) strain to imipenem [3]: 1.563; Escherichia coli MITC95 [6]: 0.7813 µM
10 | NS(=O)(=O)c1c(S(=O)(=O)N[C@@H]2CCNC2)ccc(-c2cccc3c2OC(F)(F)O3)c1-c1nnn[nH]1 [Example 131, (R)-4-(2,2-difluorobenzo[d][1,3]dioxol-4-yl)-N1-(pyrrolidin-3-yl)-3-(1H-tetrazol-5-yl)benzene-1,2-disulfonamide] | – | – | 16.00 | 1.83 | 0.275 | 0.12 | 12.5 | 0.7813 | 1.563 | 3.125 | 1.563 | –
11 | NCCNS(=O)(=O)c1ccc(-c2cccc3[nH]c([C@H](N)CN)nc23)c(-c2nn[nH]n2)c1S(N)(=O)=O [Example 335, (R)—N1-(2-aminoethyl)-4-(2-(1,2-diaminoethyl)-1H-benzo[d]imidazole-4-yl)-3-(2H-tetrazol-5-yl)benzene-1,2-disulfonamide] | 3.125 | 3.125 | 2.00 | 4.78 | 0.459 | 0.287 | 3.125 | 1.563 | – | – | – | Escherichia coli MITC95 [6]: 1.563 µM
